Data as given in ChEMBL document CHEMBL3046067, “Synthesis of some novel 3,5-disubstituted 1,3,4-oxadiazole derivatives and anticancer activity on EAC animal model” (2011).
The source made the active and inactive calls. The rule behind the calls is not given here.

Key:
[1] = Antitumor activity against Mus musculus (mouse) EAC xenografted in Mus musculus Swiss albino (mouse) assessed as viable cells at 50 mg/kg, ip qd for 7 days relative to control; assay type: functional, Ehrlich; settings: route intraperitoneal
Mus musculus [2] = assay: Antitumor activity against Mus musculus (mouse) EAC xenografted in Mus musculus Swiss albino (mouse) assessed as restoration of WBC count at 50 mg/kg, ip qd for 7 days; assay type: functional, organism-based; design: dose 50 mg/kg
Mus musculus [3] = assay: Antitumor activity against Mus musculus (mouse) EAC xenografted in Mus musculus Swiss albino (mouse) assessed as restoration of hemoglobin level at 50 mg/kg, ip qd for 7 days; assay type: functional, organism-based; design: dose 50 mg/kg
Mus musculus [4] = assay: Antitumor activity against Mus musculus (mouse) EAC xenografted in Mus musculus Swiss albino (mouse) assessed as increase in median life span at 50 mg/kg, ip qd for 7 days relative to control; assay type: functional; settings: 168 h, route intraperitoneal, read-out: Survival
[5] = Antitumor activity against Mus musculus (mouse) EAC xenografted in Mus musculus Swiss albino (mouse) assessed as inhibition of tumor formation at 50 mg/kg, ip qd for 7 days relative to control; assay type: functional; settings: Ehrlich, 168 h, route intraperitoneal
Mus musculus [6] = assay: Antitumor activity against Mus musculus (mouse) EAC xenografted in Mus musculus Swiss albino (mouse) assessed as increase in average life span at 50 mg/kg, ip qd for 7 days relative to control; assay type: functional; settings: 168 h, route intraperitoneal, read-out: Survival
[7] = Antitumor activity against Mus musculus (mouse) EAC xenografted in Mus musculus Swiss albino (mouse) assessed as non-viable cells at 50 mg/kg, ip qd for 7 days relative to control; assay type: functional, Ehrlich; settings: route intraperitoneal
Mus musculus [8] = assay: Antitumor activity against Mus musculus (mouse) EAC xenografted in Mus musculus Swiss albino (mouse) assessed as restoration of RBC count at 50 mg/kg, ip qd for 7 days; assay type: functional, organism-based; design: dose 50 mg/kg
Mus musculus [9] = assay: Antitumor activity against Mus musculus (mouse) EAC xenografted in Mus musculus Swiss albino (mouse) assessed as increase in median life span at 20 mg/kg, ip qd for 7 days relative to control; assay type: functional; settings: 168 h, route intraperitoneal
[10] = Antitumor activity against Mus musculus (mouse) EAC xenografted in Mus musculus Swiss albino (mouse) assessed as non-viable cells at 20 mg/kg, ip qd for 7 days relative to control; assay type: functional, Ehrlich; settings: route intraperitoneal
[11] = Antitumor activity against Mus musculus (mouse) EAC xenografted in Mus musculus Swiss albino (mouse) assessed as viable cells at 20 mg/kg, ip qd for 7 days relative to control; assay type: functional, Ehrlich; settings: route intraperitoneal
Mus musculus [12] = assay: Antitumor activity against Mus musculus (mouse) EAC xenografted in Mus musculus Swiss albino (mouse) assessed as increase in average life span at 20 mg/kg, ip qd for 7 days relative to control; assay type: functional; settings: 168 h, route intraperitoneal

Row | SMILES | Activity [1] [%] | Activity (Mus musculus [2]) | Activity (Mus musculus [3]) | Increase in median life span at 50 mg/kg (Mus musculus [4]) [%] | inhibition in vivo at 50 mg/kg [5] [%] | percent increase in average life span at 50 mg/kg (Mus musculus [6]) [%] | Activity [7] [%] | Activity (Mus musculus [8]) | survival at 20 mg/kg (Mus musculus [9]) [%] | Activity [10] [%] | Activity [11] [%] | survival at 20 mg/kg (Mus musculus [12]) [%]
1 | Oc1ccc(-c2nn(CNc3ccccn3)c(=S)o2)cc1 | 22.5 | Active | Active | 76.9 | 73.9 | 80.7 | 77.5 | Active | – | – | – | –
2 | O=[N+]([O-])c1ccc(-c2nn(CNc3ccccn3)c(=S)o2)cc1 | 36.83 | Active | Active | 36.9 | 60.8 | 38.5 | 63.17 | Active | – | – | – | –
3 | S=c1oc(-c2ccc(Cl)cc2Cl)nn1CNc1ccccn1 | 27.33 | Active | Active | 47.7 | 52.2 | 53.6 | 72.67 | Active | – | – | – | –
4 | O=c1[nH]cc(F)c(=O)[nH]1 [FLUOROURACIL] | – | – | – | – | – | – | – | – | 90.8 | 85.17 | 14.83 | 92.7
5 | Cc1ccc(-c2nn(CNc3ccccn3)c(=S)o2)cc1 | 24.83 | Active | Active | 73.8 | 56.5 | 74 | 75.17 | Active | – | – | – | –
6 | O=[N+]([O-])c1ccc(-c2nn(CNc3ccccc3)c(=S)o2)cc1 | 33.5 | Active | Active | 44.6 | 56.5 | 46.4 | 66.5 | Active | – | – | – | –
